# Reference: the supplement of paper PMC10307832
# What was measured:
# Test in all cases: relative viability (nuclei count vs DMSO), 5 days (fraction); higher = more cells survive
# Selumetinib + Phenformin = compound: Cn1cnc2c(F)c(Nc3ccc(Br)cc3Cl)c(C(=O)NOCCO)cc21 [Selumetinib] + N=C(N)NC(=N)NCCc1ccccc1 [Phenformin] (partner 250 µM)
# Outline: (§1)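 A single step with final 0.05% Triton X-100, 1% formaldehyde and 1 ug/ml Hoechst fixed the cells and stained nuclei 5 days after treatment. Lung cancer cell lines in 1536-well plates had been treated by pin tool the day after seeding with one drug alone or a fixed anchor-drug dose plus five library-drug doses (not always all listed) in √10 steps, and nuclei were counted on 4× images. Relative viability is the ratio of nuclei in treated wells to nuclei in vehicle wells, taken as the median of duplicate plates.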
# Venetoclax + Pemetrexed = compound: CC1(C)CCC(CN2CCN(c3ccc(C(=O)NS(=O)(=O)c4ccc(NCC5CCOCC5)c([N+](=O)[O-])c4)c(Oc4cnc5[nH]ccc5c4)c3)CC2)=C(c2ccc(Cl)cc2)C1 [Venetoclax] + Nc1nc2[nH]cc(CCc3ccc(C(=O)N[C@@H](CCC(=O)O)C(=O)O)cc3)c2c(=O)[nH]1 [Pemetrexed] (partner 0.2 µM)
# Outline: as §1
# Venetoclax + Tozasertib = compound: CC1(C)CCC(CN2CCN(c3ccc(C(=O)NS(=O)(=O)c4ccc(NCC5CCOCC5)c([N+](=O)[O-])c4)c(Oc4cnc5[nH]ccc5c4)c3)CC2)=C(c2ccc(Cl)cc2)C1 [Venetoclax] + Cc1cc(Nc2cc(N3CCN(C)CC3)nc(Sc3ccc(NC(=O)C4CC4)cc3)n2)n[nH]1 [Tozasertib] (partner 0.1 µM)
# Outline: as §1
# Venetoclax + AZD7762 = compound: CC1(C)CCC(CN2CCN(c3ccc(C(=O)NS(=O)(=O)c4ccc(NCC5CCOCC5)c([N+](=O)[O-])c4)c(Oc4cnc5[nH]ccc5c4)c3)CC2)=C(c2ccc(Cl)cc2)C1 [Venetoclax] + NC(=O)Nc1cc(-c2cccc(F)c2)sc1C(=O)N[C@H]1CCCNC1 [AZD7762] (partner 0.2 µM)
# Outline: as §1
Cell Line,relative viability (Selumetinib + Phenformin; first compound 0.02 µM),relative viability (Selumetinib + Phenformin; first compound 0.06325 µM),relative viability (Selumetinib + Phenformin; first compound 0.2 µM),relative viability (Selumetinib + Phenformin; first compound 0.6325 µM),relative viability (Venetoclax + Pemetrexed; first compound 0.01 µM),relative viability (Venetoclax + Pemetrexed; first compound 0.03162 µM),relative viability (Venetoclax + Pemetrexed; first compound 0.1 µM),relative viability (Venetoclax + Pemetrexed; first compound 0.3162 µM),relative viability (Venetoclax + Pemetrexed; first compound 1 µM),relative viability (Venetoclax + Tozasertib; first compound 0.01 µM),relative viability (Venetoclax + Tozasertib; first compound 0.03162 µM),relative viability (Venetoclax + Tozasertib; first compound 0.1 µM),relative viability (Venetoclax + Tozasertib; first compound 0.3162 µM),relative viability (Venetoclax + Tozasertib; first compound 1 µM),relative viability (Venetoclax + AZD7762; first compound 0.03162 µM),relative viability (Venetoclax + AZD7762; first compound 0.1 µM),relative viability (Venetoclax + AZD7762; first compound 0.3162 µM),relative viability (Venetoclax + AZD7762; first compound 1 µM),relative viability (Venetoclax + AZD7762; first compound 0.01 µM)
NCI-H1563,0.688,0.68,0.627,0.593,0.847,0.902,0.798,0.744,0.888,–,–,–,–,–,–,–,–,–,–
NCI-H1623,0.54,0.503,0.483,0.487,–,–,–,–,–,0.444,0.506,0.411,0.411,0.403,–,–,–,–,–
NCI-H1648,–,–,–,–,–,0.774,0.64,0.626,0.718,0.235,0.574,0.54,0.471,0.415,0.69,0.649,0.758,0.527,–
NCI-H1650,0.424,0.371,0.444,0.35,0.343,0.361,0.405,0.431,0.356,0.456,0.409,0.427,0.406,0.299,–,–,–,–,–
NCI-H1703,–,–,–,–,–,–,–,–,–,–,–,–,–,–,0.136,0.122,0.129,0.124,0.157
NCI-H1792,0.192,–,0.144,0.229,0.416,0.998,0.7,0.815,0.618,–,–,–,–,–,0.698,0.703,0.608,0.565,0.58
NCI-H2009,0.428,0.359,0.29,0.217,0.989,1.04,1.05,1,0.961,0.775,0.748,0.743,0.759,0.538,–,–,–,–,–
NCI-H2023,0.373,0.399,0.381,0.341,0.238,0.243,0.263,0.264,0.203,0.328,0.407,0.392,0.393,0.218,–,–,–,–,–
NCI-H2228,0.254,0.284,0.219,0.21,0.341,0.331,0.36,0.272,0.343,0.251,0.313,0.288,0.246,0.25,–,–,–,–,–
SK-LU-1,0.536,0.484,0.505,0.239,0.97,1.05,1.03,0.966,0.867,0.341,0.316,0.275,0.336,0.286,–,–,–,–,–
SK-MES-1,0.667,0.599,0.637,0.462,0.918,1.08,0.994,0.956,0.754,0.824,0.968,0.958,0.852,0.708,–,–,–,–,–
SW 1573,0.291,0.275,0.276,0.212,0.784,0.808,0.784,0.843,0.846,0.217,0.206,0.207,0.137,0.171,–,–,–,–,–
